Experimental data from publication PMC12461331, “Screening of Medicines for Malaria Venture Open Boxes Identifies Potent SARS-CoV‑2 Papain-like Protease (PL^pro) Inhibitors” (ACS Omega, 2025).
Values after ≈ are worked out from the molar mass of the structure shown. Values joined by “and” are separate entries in the source; they are usually repeats but may differ in a detail not shown here. Equal values may be shown once. Read-outs that look alike come from different tables or passages of the source. Square brackets hold non-standard residues; d marks the D form. Peptide text beside a SMILES is read from it.

Tests used:
SARS-CoV-2 PL^pro = SARS-CoV-2 PL^pro (Severe acute respiratory syndrome coronavirus 2, UniProt P0DTD1); type: biochemical
[1] = system: uninfected HeLa-ACE2 cells; details: Hela-ACE2 Uninfected Cell Toxicity; for S0 / Sinf / nHill: curve fit; for qAC50: relation in column qAC50 Mode, unit not given
in vitro [2] = details: human, uninfected HeLa-ACE2 cells
HeLa-ACE2 cells [3] = assay: cells; details: Homo sapiens
[4] = female, BALB/c, mouse, 1 h, pH 7.4
[5] = Human liver microsomal stability assay; details: human; for microsomal CLint at 0.5 μM: pH 7.4, HLM CLint(mic), human liver microsomes
SARS-CoV-2 [6] = details: for Data Mode: Hela-ACE2 % Positive SARS-CoV-2; for S0 / Sinf / nHill: Hela-ACE2 % Positive SARS-CoV-2, curve fit
[7] = Mouse liver microsomal stability assay; details: CD1, mouse, pH 7.4
[8] = Chromatographic distribution coefficient (eLogD7.4); details: pH 7.4
Plasma stability = details: for half-life at 2 μM: female, BALB/c, mouse, plasma, pH 7.4
[9] = Parallel artificial membrane permeability assay (PAMPA)
SARS-CoV-2 [10] = assay: microbe, parasite or virus in culture; details: for AC50: Severe acute respiratory syndrome coronavirus 2, HeLa-ACE2, read-out: Log AC50 (converted); for inhibition at 9.61 µM: Severe acute respiratory syndrome coronavirus 2, HeLa-ACE2, read-out: inhibition in the highest concentration tested
Kinetic solubility = details: 25 °C, kinetic from dmso stock
HeLa-ACE2 cells [11] = system: HeLa-ACE2 cells
PL^pro = PL^pro (Severe acute respiratory syndrome coronavirus 2, UniProt P0DTD1); details: 20 μM compound, 5 μM enzyme, average of triplicates with SD
in vitro [12] = details: CD1, mouse, microsomes, pH 7.4
physchem [13] = details: pH 7.4
in vitro [14] = details: human, microsomes, pH 7.4
in vitro [15] = details: PAMPA
physchem [16] = details: 25 °C, kinetic from dmso stock
[17] = uninfected HeLa-ACE2 CC50, supplement summary
[18] = uninfected HeLa-ACE2 CC50, uninfected HeLa-ACE2 cells, average of triplicates
[19] = HeLa-ACE2, read-out: HeLa-ACE2 Total cells EC50
[20] = Hela-ACE2 CoV-2 Total Cell count
[21] = Hela-ACE2 CoV-2 Total Cell count, curve fit

For `C[C@@H](N)C(=O)N[C@H](CCCCN)C(=O)N[C@H](CCCNC(=N)N)C(=O)N[C@H](Cc1c[nH]cn1)C(=O)N[C@H](Cc1c[nH]cn1)C(=O)NCC(=O)N[C@H](Cc1ccc(O)cc1)C(=O)N[C@H](CCCCN)C(=O)N[C@H](CCCNC(=N)N)C(=O)N[C@H](CCCCN)C(=O)N[C@H](Cc1ccccc1)C(=O)N[C@H](Cc1c[nH]cn1)C(N)=O` [P-113D] (H-[dA][dK][dR][dH][dH]G[dY][dK][dR][dK][dF][dH]-NH2), the “inhibition of SARS-CoV-2 PL^pro” value (SARS-CoV-2 PL^pro; single dose 10 μM end point screen) was no less than 80%.
In the case of `COc1ccc(CNC(=O)C2CCN(C(C)c3cccc4ccccc34)C2)cc1` (stereo not shown) [Compound 17], the “Data Mode” value [1] is reported as “decreasing”, the S0 [1] is reported as -3.377 and the Sinf [1] is reported as -100. The nHill [1] was 2.597, the qAC50 [1] was 2.965e-5 and the AC50 at 24 h (in vitro [2]) was 29.6 µM. For the same compound, the CC50 at 24 h (in vitro [2]; [17]) was 29.6 µM, the CC50 at 24 h (in vitro [2]; [18]) was 29.6 ± 0.2 µM and the EC50 (HeLa-ACE2 cells [3]; [19]) was greater than 9.61 µM. For the same compound, the AC50 (HeLa-ACE2 cells [3]; HeLa-ACE2, read-out: Log AC50 (converted)) was greater than 9.61 µM, the EC50 (HeLa-ACE2 cells [3]; HeLa-ACE2, read-out: qAC50) was greater than 9.61 µM and the “plasma stability remaining 60 min” value [4] was 73.01%. For the same compound, the half-life at 0.5 μM ([5]; microsomes, pH 7.4) was 21.7 min, the microsomal CLint at 0.5 μM ([5]; microsomes) was 128 µL/min/mg and the “CoV2 Efficacy (delta S0:Sinf)” value (SARS-CoV-2 [6]; HeLa-ACE2) was 107.984. For the same compound, the “Data Mode” value (SARS-CoV-2 [6]) was “decreasing”, the S0 (SARS-CoV-2 [6]) was 7.984 and the Sinf (SARS-CoV-2 [6]) was -100. It also gave a nHill (SARS-CoV-2 [6]) of 2.951, a half-life at 0.5 μM ([7]; microsomes) of 10.3 min and a microsomal CLint at 0.5 μM ([7]; microsomes) of 270 µL/min/mg. It also gave a chromatographic logD [8] of 4.25, a half-life at 2 μM (Plasma stability) of 12.8 h and a Papp at 5 h, 10 μM [9] of 0.61 ×10⁻⁶ cm/s. The EC50 (SARS-CoV-2 [10]; Severe acute respiratory syndrome coronavirus 2, HeLa-ACE2, read-out: CoV-2 EC50, HeLa-ACE2, supplement summary) was 6.49 µM, the AC50 (SARS-CoV-2 [10]) was 6.48 µM and the EC50 (SARS-CoV-2 [10]; Severe acute respiratory syndrome coronavirus 2, HeLa-ACE2, read-out: SARS-CoV-2 EC50, HeLa-ACE2 cells, average of triplicates) was 6.4 ± 0.4 µM. For the same compound, the inhibition at 9.61 µM (SARS-CoV-2 [10]) was greater than 50%, the EC50 (SARS-CoV-2 [10]; Severe acute respiratory syndrome coronavirus 2, HeLa-ACE2, read-out: qAC50, Hela-ACE2 % Positive SARS-CoV-2, relation in column qAC50 Mode, unit inferred) was 6.48 µM and the solubility kinetic at 24 h (Kinetic solubility; pH 2, aqueous buffer) was greater than 24 µg/mL. For the same compound, the solubility kinetic at 24 h (Kinetic solubility; pH 7.4, aqueous buffer) was greater than 19.9 µg/mL, the “Data Mode” value (HeLa-ACE2 cells [11]; [20]) was “increasing (weakly active)” and the S0 (HeLa-ACE2 cells [11]; [21]) was -9.971. For the same compound, the Sinf (HeLa-ACE2 cells [11]; [21]) was 100, the nHill (HeLa-ACE2 cells [11]; [21]) was 1.233 and the “HeLa-ACE2 Total Cell Efficacy (Sinf, note + or -)” value (HeLa-ACE2 cells [11]; infected HeLa-ACE2 total cell count) was 1.233.
For `NC[C@H]1O[C@H](O[C@H]2[C@H](O)[C@@H](O[C@H]3O[C@H](CO)[C@@H](O)[C@H](N)[C@H]3O)[C@H](N)C[C@@H]2N)[C@H](N)C[C@@H]1O` [Tobramycin, reference compound], the “inhibition of SARS-CoV-2 PL^pro” value (SARS-CoV-2 PL^pro) was no less than 80%.
Work on `COc1ccc(CC(=O)N2CCN([C@@H](C)c3cccc4ccccc34)CC2)cc1` [Compound 8] yielded a microsomal CLint at 0.5 μM ([5]; microsomes) of 186 µL/min/mg, a half-life at 0.5 μM ([5]; microsomes, pH 7.4, HLM T 1/2, human liver microsomes) of 14.9 min and a half-life at 0.5 μM ([7]; microsomes) of 7.97 min. The microsomal CLint at 0.5 μM ([7]; microsomes) was 348 µL/min/mg, the ΔT m (PL^pro) was 0.28 ± 0.05 °C and the chromatographic logD [8] was 4.56. The “plasma stability remaining 60 min” value (Plasma stability; mouse plasma, 60 min) was 84.48%, the Papp at 5 h, 10 μM [9] was 1.07 ×10⁻⁶ cm/s and the solubility kinetic at 24 h (Kinetic solubility; pH 2, aqueous buffer) was greater than 22.9 µg/mL. For the same compound, the solubility kinetic at 24 h (Kinetic solubility; pH 7.4, aqueous buffer) was greater than 15.8 µg/mL.
With `C[C@H](c1cccc2ccccc12)N1CCC(C(=O)NCc2ccc(Cl)cc2)CC1` [Compound 12] the “Data Mode” value [1] was “decreasing”, the S0 [1] was 0.4208 and the Sinf [1] was -100. The nHill [1] was 3.064, the qAC50 [1] was 1.447e-5 and the AC50 at 24 h (in vitro [2]) was 14.5 µM. It also gave a CC50 at 24 h (in vitro [2]; [17]) of 14.5 µM, a CC50 at 24 h (in vitro [2]; [18]) of 14.4 ± 0.2 µM and an EC50 (HeLa-ACE2 cells [3]; [19]) greater than 9.61 µM. The EC50 (HeLa-ACE2 cells [3]; HeLa-ACE2, read-out: qAC50) was greater than 9.61 µM, the microsomal CLint at 0.5 μM (in vitro [12]) was 226 µL/min/mg and the “plasma stability remaining 60 min” value ([4]; 2 μM) was 89.75%. The half-life at 0.5 μM ([5]; liver microsomes, pH 7.4) was 28.5 min, the “CoV2 Efficacy (delta S0:Sinf)” value (SARS-CoV-2 [6]; HeLa-ACE2) was 104.049 and the “SI (average CC50/average EC50)” value (SARS-CoV-2 [6]; HeLa-ACE2) was 4.8. The “Data Mode” value (SARS-CoV-2 [6]) was “decreasing”, the S0 (SARS-CoV-2 [6]) was 4.049 and the Sinf (SARS-CoV-2 [6]) was -100. The nHill (SARS-CoV-2 [6]) was 4, the “SI (average CC50/average EC50)” value (SARS-CoV-2 [6]; supplement summary) was 4.873 and the half-life at 0.5 μM ([7]; liver microsomes) was 12.3 min. For the same compound, the ΔT m (PL^pro) was 6.6 °C and 6.6 ± 0.2 °C, the half-life at 2 μM (Plasma stability) was 38.5 h and the chromatographic logD (physchem [13]) was 4.7. For the same compound, the EC50 (SARS-CoV-2 [10]; Severe acute respiratory syndrome coronavirus 2, HeLa-ACE2, read-out: CoV-2 EC50) was 2.97 µM, the AC50 (SARS-CoV-2 [10]) was 2.97 µM and the EC50 (SARS-CoV-2 [10]; Severe acute respiratory syndrome coronavirus 2, HeLa-ACE2, read-out: SARS-CoV-2 EC50) was 2.9 ± 0.2 µM. For the same compound, the inhibition at 9.61 µM (SARS-CoV-2 [10]) was greater than 50%, the EC50 (SARS-CoV-2 [10]; Severe acute respiratory syndrome coronavirus 2, HeLa-ACE2, read-out: qAC50) was 2.97 µM and the microsomal CLint at 0.5 μM (in vitro [14]) was 97.2 µL/min/mg. The “Data Mode” value (HeLa-ACE2 cells [11]; [20]) was “inactive”, the Papp at 5 h, 10 μM (in vitro [15]) was 0.25 ×10⁻⁶ cm/s and the solubility kinetic at 24 h (physchem [16]; pH 2, aqueous buffer) was greater than 24.1 µg/mL. It also gave a solubility kinetic at 24 h (physchem [16]; pH 7.4, aqueous buffer) of 10.2 µg/mL (≈ 25.1 µM).
